Reference: ChEMBL document CHEMBL6083219, “Rationally designed febuxostat-based hydroxamic acid and its pH-Responsive nanoformulation elicits anti-tumor activity” (Eur J Med Chem, 2024)
Active and inactive are the calls of the source. The calls are words filed in the database; no cut-off is given here.

Tests used:
Rattus norvegicus [1] = assay: Anti-hyperuricemic activity against potassium oxonate-induced hyperuricemia Wistar rat model assessed as increase in platelet counts at 5 mg/kg measured after 14 days; type: functional, organism-based; conditions: time 14.0 day
MOLT-4 = assay: Cytotoxicity against human MOLT-4 cells incubated for 1 day by MTT assay; type: functional, cell-based; conditions: MOLT-4, 24 h
HL-60 [2] = assay: Induction of autophagy in human HL-60 cells at 0.5 to 2 uM by acridine orange staining based microscopic assay; type: functional, cell-based; conditions: dose 0.5-2 µM
HL-60 [3] = assay: Downregulation of HDAC1 expression level in human HL-60 cells at 0.5 to 2 uM by Western blotting analysis; type: functional, cell-based; conditions: dose 0.5-2 µM
NCI-H1975 = type: functional, cell-based; conditions: Homo sapiens, NCI-H1975, 48 h
Rattus norvegicus [4] = assay: Anti-hyperuricemic activity against potassium oxonate-induced hyperuricemia Wistar rat model assessed as increase in number of cuboidal cells at 10 mg/kg measured after 14 days by H and E staining based assay; type: functional, organism-based; conditions: time 14.0 day
Rattus norvegicus [5] = assay: Anti-hyperuricemic activity against potassium oxonate-induced hyperuricemia Wistar rat model assessed as improvement in renal condition by measuring decrease in tubular cell swelling at 10 mg/kg measured after 14 days by H and E staining based assay; type: functional, organism-based; conditions: time 14.0 day
HL-60 [6] = assay: Induction of apoptosis in human HL-60 cells at 0.5 to 2 uM incubated for 48 hrs by propidium iodide staining based flow cytometry analysis; type: functional, cell-based; conditions: dose 0.5-2 µM
HL-60 [7] = assay: Antitumor activity against human HL-60 cells xenografted in BALB/c nude mouse model assessed as reduction in tumor volume at 50 to 100 mg/kg, ip measured twice a week for 22 days; type: functional, organism-based; conditions: dose 50-100 mg/kg, time 22.0 day
Rattus norvegicus [8] = assay: Anti-hyperuricemic activity against potassium oxonate-induced hyperuricemia Wistar rat model assessed as improvement in renal condition at 5 mg/kg by measuring decrease in degeneration of tubular cells measured after 14 days by H and E staining based assay; type: functional, organism-based; conditions: time 14.0 day
HL-60 [9] = assay: Upregulation of acetylated alpha tubulin level in human HL-60 cells by Western blotting analysis; type: functional, cell-based; conditions: dose 0.5-2 µM
Rattus norvegicus [10] = assay: Anti-hyperuricemic activity against potassium oxonate-induced hyperuricemia Wistar rat model assessed as decrease in number of basophils at 5 mg/kg measured after 14 days; type: functional, organism-based; conditions: time 14.0 day
Rattus norvegicus [11] = assay: Anti-hyperuricemic activity against potassium oxonate-induced hyperuricemia Wistar rat model assessed as improvement in renal condition at 5 mg/kg by measuring decrease in enlargement of glomeruli measured after 14 days by H and E staining based assay; type: functional, organism-based; conditions: time 14.0 day
MDA-MB-231 = assay: Induction of apoptosis in human MDA-MB-231 cells assessed as G2/M phase arrest at 0.5 to 1 uM incubated for 48 hrs; type: functional, cell-based; conditions: dose 0.5-1 µM
[12] = target: Xanthine dehydrogenase/oxidase (Bos taurus, UniProt P80457); assay: Inhibition of bovine milk xanthine oxidase
Sequence of Xanthine dehydrogenase/oxidase (P80457 whole entry): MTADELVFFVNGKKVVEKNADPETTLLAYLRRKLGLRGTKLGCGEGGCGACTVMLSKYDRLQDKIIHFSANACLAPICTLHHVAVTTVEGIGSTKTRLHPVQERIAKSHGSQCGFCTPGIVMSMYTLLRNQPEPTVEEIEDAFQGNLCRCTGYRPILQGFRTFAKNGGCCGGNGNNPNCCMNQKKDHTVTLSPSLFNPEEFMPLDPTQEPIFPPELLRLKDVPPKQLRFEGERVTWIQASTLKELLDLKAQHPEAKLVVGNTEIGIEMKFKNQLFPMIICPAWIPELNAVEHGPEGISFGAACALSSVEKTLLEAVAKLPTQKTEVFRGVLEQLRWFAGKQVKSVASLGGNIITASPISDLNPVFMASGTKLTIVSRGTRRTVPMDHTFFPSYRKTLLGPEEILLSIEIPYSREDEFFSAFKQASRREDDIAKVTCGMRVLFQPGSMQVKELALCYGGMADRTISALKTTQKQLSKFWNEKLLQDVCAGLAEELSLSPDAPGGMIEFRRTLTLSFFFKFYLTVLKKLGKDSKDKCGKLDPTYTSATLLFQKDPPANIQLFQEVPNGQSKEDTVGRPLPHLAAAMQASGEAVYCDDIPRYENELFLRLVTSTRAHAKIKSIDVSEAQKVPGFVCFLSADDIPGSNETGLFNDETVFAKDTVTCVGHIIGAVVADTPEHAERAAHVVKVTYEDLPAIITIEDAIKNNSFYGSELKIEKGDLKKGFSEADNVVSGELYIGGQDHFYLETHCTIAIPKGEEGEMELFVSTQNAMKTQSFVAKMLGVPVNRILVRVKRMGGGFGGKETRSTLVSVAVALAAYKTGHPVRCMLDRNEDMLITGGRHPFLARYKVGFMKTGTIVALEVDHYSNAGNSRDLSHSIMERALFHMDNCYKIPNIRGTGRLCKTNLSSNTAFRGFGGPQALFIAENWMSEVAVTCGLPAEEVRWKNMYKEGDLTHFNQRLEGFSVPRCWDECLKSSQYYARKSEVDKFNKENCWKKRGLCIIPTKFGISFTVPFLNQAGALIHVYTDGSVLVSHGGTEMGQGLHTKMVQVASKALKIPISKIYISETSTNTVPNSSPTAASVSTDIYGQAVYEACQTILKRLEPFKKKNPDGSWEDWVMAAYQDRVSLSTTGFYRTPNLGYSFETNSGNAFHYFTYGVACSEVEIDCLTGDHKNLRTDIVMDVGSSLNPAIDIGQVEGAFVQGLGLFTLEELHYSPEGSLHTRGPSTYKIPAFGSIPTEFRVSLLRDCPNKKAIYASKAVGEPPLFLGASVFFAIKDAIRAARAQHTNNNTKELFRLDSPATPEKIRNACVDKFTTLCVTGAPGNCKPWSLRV

**Q.** For Cc1nc(-c2ccc(OCC(C)C)c(C#N)c2)sc1C(=O)NCCCCCCC(=O)NO, which Activity (Rattus norvegicus [1]) is on record?
**A.** Its Activity is “Active”.

**Q.** And the IC50 (MOLT-4)?
**A.** Its IC50 is 1190 nM.

**Q.** And the Activity (HL-60 [2])?
**A.** Its Activity is “Active”.

**Q.** And the Activity (HL-60 [3])?
**A.** The Activity was “Active; Activity More Potent Than Saha”.

**Q.** What about the IC50 (NCI-H1975) of the same molecule?
**A.** The IC50 was 5440 nM.

**Q.** And the Activity (Rattus norvegicus [4])?
**A.** The Activity was “Active”.

**Q.** And the Activity (Rattus norvegicus [5])?
**A.** The Activity was “Active”.

**Q.** What about the Activity (HL-60 [6]) of the same molecule?
**A.** Its Activity is “Active; Activity Similar To Saha”.

**Q.** What about the Activity (HL-60 [7]) of the same molecule?
**A.** The Activity was “Active; Activity More Potent Than Saha”.

**Q.** And the Activity (Rattus norvegicus [8])?
**A.** The Activity was “Active”.

**Q.** And the Activity (HL-60 [9])?
**A.** The Activity was “Dose-dependent-effect”.

**Q.** What about the Activity (Rattus norvegicus [10]) of the same molecule?
**A.** Its Activity is “Active”.

**Q.** What about the Activity (Rattus norvegicus [11]) of the same molecule?
**A.** Its Activity is “Active”.

**Q.** And the Activity (MDA-MB-231)?
**A.** The Activity was “Active”.

**Q.** And the IC50 [12]?
**A.** The IC50 was 6.6 nM.
